Drawing on patent publication US9682965B2, “Fumagillol heterocyclic compounds and methods of making and using same” (Zafgen, Inc., priority 2015, dated 2017), this text covers inhibition in vivo for 16 molecules.

Structures are written as SMILES. Counter-ions that a name gives are not always drawn.

The experiment relates to Diet Induced Obese (DIO) C57BL/6 mice. Nature of the experiment: 10 day DIO mouse model (body weight, food intake, hematology, blood chemistry). The experiment is classed as in vivo. Particulars: 240 h; DIO mouse, 0.3 mpk sc, once a day for 10 days; read-out: DIO Mouse 10-day weight loss vs vehicle. The source says: The objective of this study design was to investigate the efficacy of disclosed compounds in a 10 day DIO mouse model. Effects on body weight, food intake, hematology and blood chemistry were the primary readouts of this study design. […] Mice were fed Research Diets D12492 (60% Kcal fat, 20% Kcal carbohydrate and 20% protein) and provided water ad libitum. DIO mice were received and housed in the facility for approximately two weeks prior to the start of test article administration. On Day −4 or −3, mice were randomized into study groups based on body weight and body weights were continued to be recorded daily for the duration of the study. Daily food intake was assessed starting on Study Day −2 by weighing of the food with hopper together to avoid loss of food in transfer.
Compounds were formulated into a 100% DMSO stock (at 9 mg/mL) prior to the start, and further diluted into the target working concentration using the vehicle of 10% DMSO in water. Prior to test article administration, starting on Day −3 a dosing acclimation occured with all animals receiving a subcutaneous injection of vehicle (10% DMSO) only for 3 days. Starting on Day 1, test compounds or vehicle were administered based on individual body weight, subcutaneously, once a day for 10 days. All mice were sacrificed on Day 11, 24 hours following the final dosing on Day 10. After sacrifice, whole blood was collected and analyzed for hematology and blood chemistry parameters.
Compounds were tested vs. vehicle at various doses (1.0, 0.5, 0.3, 0.1, 0.03 mpk sc (mg per kg animal weight delivered subcutaneously), and the results are shown in Table 2 below.
Regarding `CO[C@@H]1[C@H](OC(=O)N2CC(CCN3CCC(C#N)(C#N)CC3)C2)CC[C@]2(CO2)[C@H]1[C@@]1(C)O[C@@H]1CC=C(C)C` [Example 36, (3R,4S,5S,6R)-5-methoxy-4-((2R,3R)-2-methyl-3-(3-methylbut-2-enyl)oxiran-2-yl)-1-oxaspiro[2.5]octan-6-yl 3-(2-(4,4-dicyanopiperidin-1-yl)ethyl)azetidine-1-carboxylate], the inhibition in vivo at 0.3 mg/kg came out at 11.2%.

With `CCN(CC)C[C@H]1CCN(C(=O)O[C@@H]2CC[C@]3(CO3)[C@@H]([C@@]3(C)O[C@@H]3CC=C(C)C)[C@@H]2OC)C1` [Example 38, (R)-((3R,4S,5S,6R)-5-methoxy-4-((2R,3R)-2-methyl-3-(3-methylbut-2-enyl)oxiran-2-yl)-1-oxaspiro[2.5]octan-6-yl) 3-((diethylamino)methyl)pyrrolidine-1-carboxylate formate], the inhibition in vivo at 0.3 mg/kg worked out at 6.7%.

For `CO[C@@H]1[C@H](OC(=O)N2CC(CCN3CCOCC3=O)C2)CC[C@]2(CO2)[C@H]1[C@@]1(C)O[C@@H]1CC=C(C)C` [Example 39, (3R,4S,5S,6R)-5-methoxy-4-((2R,3R)-2-methyl-3-(3-methylbut-2-enyl)oxiran-2-yl)-1-oxaspiro[2.5]octan-6-yl 3-(2-(3-oxomorpholino)ethyl)azetidine-1-carboxylate], the inhibition in vivo at 0.3 mg/kg turned out to be 1.7%.

On to `CO[C@@H]1[C@H](OC(=O)N2CC[C@H]2CN2CCCC2)CC[C@]2(CO2)[C@H]1[C@@]1(C)O[C@@H]1CC=C(C)C` [Example 41, (S)-((3R,4S,5S,6R)-5-methoxy-4-((2R,3R)-2-methyl-3-(3-methylbut-2-enyl)oxiran-2-yl)-1-oxaspiro[2.5]octan-6-yl) 2-(pyrrolidin-1-ylmethyl)azetidine-1-carboxylate formate], for which the inhibition in vivo at 0.3 mg/kg stood at 4.4%.

With `CO[C@@H]1[C@H](OC(=O)N2CC[C@@H]2CN2CCCC2)CC[C@]2(CO2)[C@H]1[C@@]1(C)O[C@@H]1CC=C(C)C` [Example 42, (R)-((3R,4S,5S,6R)-5-methoxy-4-((2R,3R)-2-methyl-3-(3-methylbut-2-enyl)oxiran-2-yl)-1-oxaspiro[2.5]octan-6-yl) 2-(pyrrolidin-1-ylmethyl)azetidine-1-carboxylate formate], the inhibition in vivo at 0.3 mg/kg amounted to 5.3%.

In the case of `CCN(CC)CC1CN(C(=O)O[C@@H]2CC[C@]3(CO3)[C@@H]([C@@]3(C)O[C@@H]3CC=C(C)C)[C@@H]2OC)CCO1` (stereo partly drawn) [Example 44, (3R,4S,5S,6R)-5-methoxy-4-((2R,3R)-2-methyl-3-(3-methylbut-2-enyl)oxiran-2-yl)-1-oxaspiro[2.5]octan-6-yl 2-((diethylamino)methyl)morpholine-4-carboxylate formate], the inhibition in vivo at 0.3 mg/kg is 2.1%.

Consider `CO[C@@H]1[C@H](OC(=O)N2CC(CCN3CC[C@H](O)C3)C2)CC[C@]2(CO2)[C@H]1[C@@]1(C)O[C@@H]1CC=C(C)C` [Example 46, (3R,4S,5S,6R)-5-methoxy-4-((2R,3R)-2-methyl-3-(3-methylbut-2-enyl)oxiran-2-yl)-1-oxaspiro[2.5]octan-6-yl 3-(2-((S)-3-hydroxypyrrolidin-1-yl)ethyl)azetidine-1-carboxylate formate], for which the inhibition in vivo at 0.3 mg/kg turned out to be 5.2%.

With `CO[C@@H]1[C@H](OC(=O)N2CC(CCN3CC[C@@H](O)C3)C2)CC[C@]2(CO2)[C@H]1[C@@]1(C)O[C@@H]1CC=C(C)C` [Example 47, (3R,4S,5S,6R)-5-methoxy-4-((2R,3R)-2-methyl-3-(3-methylbut-2-enyl)oxiran-2-yl)-1-oxaspiro[2.5]octan-6-yl 3-(2-((R)-3-hydroxypyrrolidin-1-yl)ethyl)azetidine-1-carboxylate], the inhibition in vivo at 0.3 mg/kg turned out to be 5.6%.

In the case of `CCN(CC)CC[C@H]1CCCN1C(=O)O[C@@H]1CC[C@]2(CO2)[C@@H]([C@@]2(C)O[C@@H]2CC=C(C)C)[C@@H]1OC` [Example 50, (R)-((3R,4S,5S,6R)-5-methoxy-4-((2R,3R)-2-methyl-3-(3-methylbut-2-enyl)oxiran-2-yl)-1-oxaspiro[2.5]octan-6-yl) 2-(2-(diethylamino)ethyl)pyrrolidine-1-carboxylate formate], the inhibition in vivo at 0.3 mg/kg worked out at 2.6%.

With `CCN(CC)CC[C@@H]1CCCN1C(=O)O[C@@H]1CC[C@]2(CO2)[C@@H]([C@@]2(C)O[C@@H]2CC=C(C)C)[C@@H]1OC` [Example 51, (S)-((3R,4S,5S,6R)-5-methoxy-4-((2R,3R)-2-methyl-3-(3-methylbut-2-enyl)oxiran-2-yl)-1-oxaspiro[2.5]octan-6-yl) 2-(2-(diethylamino)ethyl)pyrrolidine-1-carboxylate formate], the inhibition in vivo at 0.3 mg/kg amounted to 4.3%.

For the molecule `CO[C@@H]1[C@H](OC(=O)N2CC[C@@H](CCN3CC(F)(F)C3)C2)CC[C@]2(CO2)[C@H]1[C@@]1(C)O[C@@H]1CC=C(C)C` [Example 58, (R)-((3R,4S,5S,6R)-5-methoxy-4-((2R,3R)-2-methyl-3-(3-methylbut-2-enyl)oxiran-2-yl)-1-oxaspiro[2.5]octan-6-yl) 3-(2-(3,3-difluoroazetidin-1-yl)ethyl)pyrrolidine-1-carboxylate], the inhibition in vivo at 0.3 mg/kg turned out to be 15.8%.

Consider `CO[C@@H]1[C@H](OC(=O)N2CC(CCC(=O)NCCN3CCOCC3)C2)CC[C@]2(CO2)[C@H]1[C@@]1(C)O[C@@H]1CC=C(C)C` [Example 67, (3R,4S,5S,6R)-5-methoxy-4-((2R,3R)-2-methyl-3-(3-methylbut-2-enyl)oxiran-2-yl)-1-oxaspiro[2.5]octan-6-yl 3-(3-(2-morpholinoethylamino)-3-oxopropyl)azetidine-1-carboxylate], for which the inhibition in vivo at 0.3 mg/kg was 2.8%.

As to `CCN(CC)CCNC(=O)OCC1CN(C(=O)O[C@@H]2CC[C@]3(CO3)[C@@H]([C@@]3(C)O[C@@H]3CC=C(C)C)[C@@H]2OC)C1` [Example 68, (3R,4S,5S,6R)-5-methoxy-4-((2R,3R)-2-methyl-3-(3-methylbut-2-en-1-yl)oxiran-2-yl)-1-oxaspiro[2.5]octan-6-yl 3-((((2-(diethylamino)ethyl)carbamoyl)oxy)methyl)azetidine-1-carboxylate], the inhibition in vivo at 0.3 mg/kg turned out to be 0%.

For the molecule `CO[C@@H]1[C@H](OC(=O)N2CC(COC(=O)N(C)C)C2)CC[C@]2(CO2)[C@H]1[C@@]1(C)O[C@@H]1CC=C(C)C` [Example 70, (3R,4S,5S,6R)-5-methoxy-4-((2R,3R)-2-methyl-3-(3-methylbut-2-enyl)oxiran-2-yl)-1-oxaspiro[2.5]octan-6-yl 3-((dimethylcarbamoyloxy)methyl)azetidine-1-carboxylate], the inhibition in vivo at 0.3 mg/kg turned out to be 14.5%.

Consider `CCNC(=O)OC1CN(C(=O)O[C@@H]2CC[C@]3(CO3)[C@@H]([C@@]3(C)O[C@@H]3CC=C(C)C)[C@@H]2OC)C1` [Example 75, (3R,4S,5S,6R)-5-methoxy-4-((2R,3R)-2-methyl-3-(3-methylbut-2-enyl)oxiran-2-yl)-1-oxaspiro[2.5]octan-6-yl 3-(ethylcarbamoyloxy)azetidine-1-carboxylate], for which the inhibition in vivo at 0.3 mg/kg was determined as 12.8%.

With `CO[C@@H]1[C@H](OC(=O)N2CC(OC(=O)NC(C)C)C2)CC[C@]2(CO2)[C@H]1[C@@]1(C)O[C@@H]1CC=C(C)C` [Example 76, (3R,4S,5S,6R)-5-methoxy-4-((2R,3R)-2-methyl-3-(3-methylbut-2-enyl)oxiran-2-yl)-1-oxaspiro[2.5]octan-6-yl 3-(isopropylcarbamoyloxy)azetidine-1-carboxylate], the inhibition in vivo at 0.3 mg/kg is 15.4%.
